The source of these data is US11548870B2, “Compounds useful as inhibitors of helios protein” (Bristol-Myers Squibb Company, priority 2019, dated 2023).

One assay deals with T1, Helios (Homo sapiens, UniProt Q96SW2+Q9UKS7).
T1 construct: fluorescently labelled antibodies against Helios and Ikaros; endogenous in cells; host or cells: Jurkat cells
The assay can be described thus: Helios Cellular Degradation Assay (flow cytometry, Helios-PE antibody staining, 72 h). It is filed as cell-based. Particulars: Jurkat cells, 72 h incubation, flow cytometry; for Dmax: Jurkat, read-out: Helios Dmax. The essentials:
(§1)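 Jurkat cells (80,000/well, RPMI+10% FBS) were exposed to compound for 72 h at 37 °C, then fixed, permeabilized and co-stained for 1 h with Ikaros-Alexa488 and Helios-PE antibodies. Intracellular protein levels were read by flow cytometry.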
In general terms: In flow cytometry, cells or beads pass a laser one at a time.

The target in a further assay is T2, Ikaros (Homo sapiens, UniProt Q13422).
T2 construct: fluorescently labelled antibodies against Helios and Ikaros; endogenous in cells; host or cells: Jurkat cells
T2 sequence (Q96SW2 whole entry partner): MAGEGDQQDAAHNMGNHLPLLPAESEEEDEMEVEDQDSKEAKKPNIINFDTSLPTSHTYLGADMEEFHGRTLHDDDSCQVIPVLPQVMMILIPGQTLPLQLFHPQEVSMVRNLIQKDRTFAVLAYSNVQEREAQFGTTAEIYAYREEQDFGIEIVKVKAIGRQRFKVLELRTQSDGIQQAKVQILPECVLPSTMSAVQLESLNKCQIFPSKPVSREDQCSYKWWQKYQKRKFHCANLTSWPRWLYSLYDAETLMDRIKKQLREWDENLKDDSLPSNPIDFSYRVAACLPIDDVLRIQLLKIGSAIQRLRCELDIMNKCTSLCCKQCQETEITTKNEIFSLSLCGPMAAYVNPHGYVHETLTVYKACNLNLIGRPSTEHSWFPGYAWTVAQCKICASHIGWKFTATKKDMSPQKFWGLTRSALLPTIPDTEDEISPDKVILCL
T2 sequence (Q16531 whole entry partner): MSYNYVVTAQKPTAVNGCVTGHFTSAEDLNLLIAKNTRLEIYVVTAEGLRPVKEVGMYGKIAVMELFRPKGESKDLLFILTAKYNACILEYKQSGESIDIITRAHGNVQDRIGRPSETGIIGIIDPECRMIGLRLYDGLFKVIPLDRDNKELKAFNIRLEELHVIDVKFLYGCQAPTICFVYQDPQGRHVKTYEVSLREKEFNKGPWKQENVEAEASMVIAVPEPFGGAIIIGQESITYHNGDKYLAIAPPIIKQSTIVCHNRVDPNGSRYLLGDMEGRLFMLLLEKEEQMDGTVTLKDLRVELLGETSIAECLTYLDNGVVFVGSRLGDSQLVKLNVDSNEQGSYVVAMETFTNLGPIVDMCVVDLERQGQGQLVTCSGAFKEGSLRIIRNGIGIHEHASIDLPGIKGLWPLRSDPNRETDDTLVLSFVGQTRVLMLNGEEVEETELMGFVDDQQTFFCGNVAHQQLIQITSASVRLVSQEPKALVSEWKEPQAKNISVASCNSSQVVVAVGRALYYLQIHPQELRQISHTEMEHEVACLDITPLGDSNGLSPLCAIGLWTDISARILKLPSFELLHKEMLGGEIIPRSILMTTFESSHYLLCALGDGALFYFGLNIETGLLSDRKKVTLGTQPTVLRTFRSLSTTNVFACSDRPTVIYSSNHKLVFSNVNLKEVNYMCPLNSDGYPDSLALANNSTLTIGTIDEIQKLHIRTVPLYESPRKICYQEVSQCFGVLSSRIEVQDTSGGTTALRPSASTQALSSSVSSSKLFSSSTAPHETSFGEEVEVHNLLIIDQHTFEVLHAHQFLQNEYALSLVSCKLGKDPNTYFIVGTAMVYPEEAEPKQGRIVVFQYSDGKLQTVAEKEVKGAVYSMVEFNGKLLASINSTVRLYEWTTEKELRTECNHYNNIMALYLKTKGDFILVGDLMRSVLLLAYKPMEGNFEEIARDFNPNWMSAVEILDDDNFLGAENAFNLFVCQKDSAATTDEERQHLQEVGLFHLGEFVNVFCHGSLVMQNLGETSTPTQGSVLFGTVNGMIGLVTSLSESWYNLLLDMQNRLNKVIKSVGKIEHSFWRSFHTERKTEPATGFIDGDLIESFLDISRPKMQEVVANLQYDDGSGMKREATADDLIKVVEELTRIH
T2 sequence (Q13422 whole entry): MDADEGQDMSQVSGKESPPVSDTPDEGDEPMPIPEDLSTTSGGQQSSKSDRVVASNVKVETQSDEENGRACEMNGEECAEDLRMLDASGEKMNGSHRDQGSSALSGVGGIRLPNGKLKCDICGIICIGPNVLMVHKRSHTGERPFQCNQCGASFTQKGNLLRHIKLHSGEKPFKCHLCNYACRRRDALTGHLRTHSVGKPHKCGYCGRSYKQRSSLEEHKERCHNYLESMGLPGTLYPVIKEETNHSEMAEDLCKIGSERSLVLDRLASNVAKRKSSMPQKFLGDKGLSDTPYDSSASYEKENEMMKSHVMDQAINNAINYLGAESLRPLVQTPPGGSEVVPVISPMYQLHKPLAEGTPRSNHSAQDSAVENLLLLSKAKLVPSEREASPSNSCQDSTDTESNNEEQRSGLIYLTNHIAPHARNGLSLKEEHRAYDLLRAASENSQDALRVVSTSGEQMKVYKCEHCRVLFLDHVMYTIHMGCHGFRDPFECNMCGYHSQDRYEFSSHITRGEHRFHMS
The assay can be described thus: Helios Cellular Degradation Assay, Ikaros readout (flow cytometry, Ikaros-Alexa488 antibody staining, 72 h). It is filed as cell-based. The note with it: Jurkat cells, 72 h incubation, flow cytometry; for Dmax: Jurkat, read-out: Ikaros Dmax. The essentials: as §1

Structures are written as SMILES.

T1 sequence (Q9UKS7 whole entry): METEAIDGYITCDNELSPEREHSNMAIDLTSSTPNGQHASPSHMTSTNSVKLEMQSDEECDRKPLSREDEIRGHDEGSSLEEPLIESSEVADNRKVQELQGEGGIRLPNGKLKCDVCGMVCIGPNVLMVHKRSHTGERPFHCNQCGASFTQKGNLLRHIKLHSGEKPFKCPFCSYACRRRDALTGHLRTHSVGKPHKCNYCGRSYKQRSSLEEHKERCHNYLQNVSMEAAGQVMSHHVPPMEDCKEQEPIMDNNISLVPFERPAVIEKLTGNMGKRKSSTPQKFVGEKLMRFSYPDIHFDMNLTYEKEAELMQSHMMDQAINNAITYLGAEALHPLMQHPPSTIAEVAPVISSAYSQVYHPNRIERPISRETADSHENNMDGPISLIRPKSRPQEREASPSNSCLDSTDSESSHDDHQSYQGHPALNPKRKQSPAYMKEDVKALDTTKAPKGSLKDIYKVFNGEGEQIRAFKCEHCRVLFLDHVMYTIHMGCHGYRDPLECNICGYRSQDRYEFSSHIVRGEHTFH
T1 sequence (Q96SW2 whole entry): as the sequence (Q96SW2 whole entry partner) above
T1 sequence (Q16531 whole entry partner): as the sequence (Q16531 whole entry partner) above

`CN(Cc1ccnc(-c2ccc3c(c2)CN(C2CCC(=O)NC2=O)C3=O)c1)Cc1ccc(F)c(F)c1` (centres unmarked) [Example 152, 3-(5-(4-(((3,4-difluorobenzyl)(methyl)amino)methyl)pyridin-2-yl)-1-oxoisoindolin-2-yl)piperidine-2,6-dione]: on Helios, it took 850 nM to reach half-maximal degradation (DC50) and the Dmax was 55%. Moreover, on Ikaros, the DC50 was over 10 µM and the Dmax came to 7%.

For `COC(=O)c1ccc(CN(C)Cc2ccnc(-c3ccc4c(c3)CN(C3CCC(=O)NC3=O)C4=O)c2)cc1` (centres unmarked) [Example 153, methyl 4-((((2-(2-(2,6-dioxopiperidin-3-yl)-1-oxoisoindolin-5-yl)pyridin-4-yl)methyl)(methyl)amino)methyl)benzoate], on Helios, the half-maximal degradation concentration (DC50) was 4710 nM and the greatest degradation seen (Dmax) turned out to be 58%. Also, on Ikaros, the 50% degradation concentration (DC50) is over 10 µM and the maximal degradation (Dmax) worked out at 7%.

Regarding `CN(Cc1ccc(Cl)cc1)Cc1ccnc(-c2ccc3c(c2)CN(C2CCC(=O)NC2=O)C3=O)c1` (centres unmarked) [Example 154, 3-(5-(4-(((4-chlorobenzyl)(methyl)amino)methyl)pyridin-2-yl)-1-oxoisoindolin-2-yl)piperidine-2,6-dione], on Helios, half-maximal degradation (DC50) was put at 3260 nM and the greatest degradation seen (Dmax) was 54%. Further, at Ikaros, the half-maximal degradation concentration (DC50) was over 10 µM and the greatest degradation seen (Dmax) was determined as 6%.

`CN(Cc1ccnc(-c2ccc3c(c2)CN(C2CCC(=O)NC2=O)C3=O)c1)Cc1cccc2cccnc12` (centres unmarked) [Example 155, 3-(5-(4-((methyl(quinolin-8-ylmethyl)amino)methyl)pyridin-2-yl)-1-oxoisoindolin-2-yl)piperidine-2,6-dione]: on Helios, half-maximal degradation (DC50) was put at 1580 nM and the Dmax came to 57%. On Ikaros, the 50% degradation concentration (DC50) was over 10 µM and the Dmax was found to be 0%.

As to `CN(Cc1cccc(OC(F)(F)F)c1)Cc1ccnc(-c2ccc3c(c2)CN(C2CCC(=O)NC2=O)C3=O)c1` (centres unmarked) [Example 156, 3-(5-(4-((methyl(3-(trifluoromethoxy)benzyl)amino)methyl)pyridin-2-yl)-1-oxoisoindolin-2-yl)piperidine-2,6-dione], at Helios, the DC50 was 1830 nM and the Dmax is 56%. At Ikaros, the DC50 is over 10 µM and the Dmax stood at 11%.

Regarding `CN(Cc1ccc(S(C)(=O)=O)cc1)Cc1ccnc(-c2ccc3c(c2)CN(C2CCC(=O)NC2=O)C3=O)c1` (centres unmarked) [Example 157, 3-(5-(4-((methyl(4-(methylsulfonyl)benzyl)amino)methyl)pyridin-2-yl)-1-oxoisoindolin-2-yl)piperidine-2,6-dione], at Helios, the 50% degradation concentration (DC50) is over 10000 nM and the Dmax was determined as 38%. Moreover, on Ikaros, the DC50 is over 10 µM and the Dmax is 8%.

Consider `COc1cccc(CN(C)Cc2ccnc(-c3ccc4c(c3)CN(C3CCC(=O)NC3=O)C4=O)c2)c1` (centres unmarked) [Example 158, 3-(5-(4-(((3-methoxybenzyl)(methyl)amino)methyl)pyridin-2-yl)-1-oxoisoindolin-2-yl)piperidine-2,6-dione], for which the DC50 at Helios is 256 nM; at Ikaros it was over 10 µM. In addition, the Dmax was 74% on Helios and 3% at Ikaros.

With `CN(Cc1cccnc1)Cc1ccnc(-c2ccc3c(c2)CN(C2CCC(=O)NC2=O)C3=O)c1` (centres unmarked) [Example 159, 3-(5-(4-((methyl(pyridin-3-ylmethyl)amino)methyl)pyridin-2-yl)-1-oxoisoindolin-2-yl)piperidine-2,6-dione], at Helios, the DC50 worked out at 136 nM and the Dmax is 76%. Moreover, on Ikaros, the DC50 was over 10 µM and the greatest degradation seen (Dmax) was 25%.

As to `CN(Cc1ccncc1)Cc1ccnc(-c2ccc3c(c2)CN(C2CCC(=O)NC2=O)C3=O)c1` (centres unmarked) [Example 160, 3-(5-(4-((methyl(pyridin-4-ylmethyl)amino)methyl)pyridin-2-yl)-1-oxoisoindolin-2-yl) piperidine-2,6-dione], the values for the DC50 on Helios and at Ikaros were 359 nM and over 10 µM, respectively. For the same compound, the maximal degradation (Dmax) on Helios was 70%; at Ikaros, 30%.

As to `Cc1ccc(CN(C)Cc2ccnc(-c3ccc4c(c3)CN(C3CCC(=O)NC3=O)C4=O)c2)cc1` (centres unmarked) [Example 161, 3-(5-(4-((methyl(4-methylbenzyl)amino)methyl)pyridin-2-yl)-1-oxoisoindolin-2-yl)piperidine-2,6-dione], on Helios, the DC50 is 67 nM and the Dmax stood at 83%. On Ikaros, the half-maximal degradation concentration (DC50) is over 10 µM and the greatest degradation seen (Dmax) was determined as 17%.

As for `CN(Cc1ccnc(-c2ccc3c(c2)CN(C2CCC(=O)NC2=O)C3=O)c1)Cc1ccc2ccccc2c1` (centres unmarked) [Example 162, 3-(5-(4-((methyl(naphthalen-2-ylmethyl)amino)methyl)pyridin-2-yl)-1-oxoisoindolin-2-yl)piperidine-2,6-dione], at Helios, half-maximal degradation (DC50) was put at 1090 nM and the maximal degradation (Dmax) came out at 63%. Further, at Ikaros, the DC50 was over 10 µM and the Dmax stood at 2%.

For the compound `O=C1CCC(N2Cc3cc(-c4cc(CN(Cc5ccccc5)Cc5ccccc5)ccn4)ccc3C2=O)C(=O)N1` (centres unmarked) [Example 163, 3-(5-{4-[(Dibenzylamino)methyl]pyridin-2-yl}-1-oxo-2,3-dihydro-1H-isoindol-2-yl)piperidine-2,6-dione], the values for the DC50 at Helios and at Ikaros were 1020 nM and over 10 µM, respectively. Also, the Dmax on Helios is 56%; on Ikaros it was 31%.

Turning to `CN(Cc1ccccc1)Cc1ccnc(-c2ccc3c(c2)CN(C2CCC(=O)NC2=O)C3=O)c1` (centres unmarked) [Example 164, 3-[5-(4-{[Benzyl(methyl)amino]methyl}pyridin-2-yl)-1-oxo-2,3-dihydro-1H-isoindol-2-yl]piperidine-2,6-dione], the DC50 on Helios is 62 nM; at Ikaros, over 10 µM. The greatest degradation seen (Dmax) turned out to be 77% on Helios and 10% on Ikaros.

As for `O=C1CCC(N2Cc3cc(-c4cc(CN5CCC5)ccn4)ccc3C2=O)C(=O)N1` (centres unmarked) [Example 165, 3-(5-{4-[(Azetidin-1-yl)methyl]pyridin-2-yl}-1-oxo-2,3-dihydro-1H-isoindol-2-yl) piperidine-2,6-dione], at Helios, the 50% degradation concentration (DC50) came to 56 nM and the Dmax came to 95%. Moreover, on Ikaros, the DC50 is over 10 µM and the Dmax stood at 14%.

Turning to `O=C1CCC(N2Cc3cc(-c4cc(CN5CCOCC5)ccn4)ccc3C2=O)C(=O)N1` (centres unmarked) [Example 166, 3-(5-{4-[(Morpholin-4-yl)methyl]pyridin-2-yl}-1-oxo-2,3-dihydro-1H-isoindol-2-yl) piperidine-2,6-dione], the DC50 on Helios is 7860 nM; on Ikaros, over 10 µM. In addition, the maximal degradation (Dmax) on Helios turned out to be 52%; on Ikaros it was 7%.

On to `O=C1CCC(N2Cc3cc(-c4cc(CN5CCS(=O)(=O)CC5)ccn4)ccc3C2=O)C(=O)N1` (centres unmarked) [Example 167, 4-({2-[2-(2,6-Dioxopiperidin-3-yl)-1-oxo-2,3-dihydro-1H-isoindol-5-yl]pyridin-4-yl}methyl)-1λ6-thiomorpholine-1,1-dione], for which, on Helios, the DC50 is over 10000 nM and the Dmax came out at 41%. Moreover, on Ikaros, the 50% degradation concentration (DC50) is over 10 µM and the Dmax came to 12%.

For `COc1ccc(CN(C)Cc2ccnc(-c3ccc4c(c3)CN(C3CCC(=O)NC3=O)C4=O)c2)cn1` (centres unmarked) [Example 168, 3-{5-[4-({[(6-Methoxypyridin-3-yl)methyl](methyl)amino}methyl)pyridin-2-yl]-1-oxo-2,3-dihydro-1H-isoindol-2-yl}piperidine-2,6-dione], at Helios, it took 309 nM to reach half-maximal degradation (DC50) and the maximal degradation (Dmax) worked out at 77%. In addition, on Ikaros, the DC50 is over 10 µM and the greatest degradation seen (Dmax) worked out at 20%.

In general, DC50 refers to the concentration at which degradation of the target reaches its halfway point. A higher DC50 goes with degradation only at high concentration. Usually Dmax stands for the largest share of the target that was removed.
